Measurements taken from patent US4342775A, “3-(1-Imidazolyl)-derivatives of 2,3-dihydro-4H-1-benzopyran” (Farmitalia Carlo Erba S.p.A., priority 1980, dated 1982).

Key:
[1] = tested on: Icem: CER (SPF Caw) male rats fed standard diet Altromin; test: Experiment No. 2: serum lipids in rats fed standard diet Altromin; assay type: in vivo, rat; conditions: 50 mg/kg/os for 4 days; for Serum HDL total cholesterol, mean ± S.E.: ** p < 0.05; for Serum triglycerides, mean ± S.E. / Total serum cholesterol, mean ± S.E. / α/β lipoprotein total cholesterol, mean: *** p < 0.01
Method: (§1) The activity of the compounds of the invention was evaluated on groups of Icem: CER (SPF Caw) male rats either fed for six days with hypercholesterolaemic diet according to C. E. Day [Schurr P. E., Schultz H. R., Day C. E. (Eds) Atherosclerosis and drug discovery--Plenum Pub. Corp., 217 (1976)] (Experiment No. 1) or fed standard diet Altromin (Experiment No. 2). "Altromin" is a trade mark.
(§2) The compounds were suspended in "Methocel" (methyl cellulose, a 0.5% suspension in water) and administered by stomach tube at the dose of 50 mg/kg for 4 days.
(§3) Groups of animals were treated with the suspending agent only (control groups).
(§4) The total serum cholesterol was determined with the method of Trinder P. J. [J. Clin. Pathol., 22, 246 (1969)].
The serum triglycerides were determined with the method of Mendez J. [J. Clin. Chem., 21, 768, (1975)].
(§5) The total serum HDL cholesterol was determined according to Demacker P. N. M. [Clin. Chem., 23, 1238, (1977)]. The total β-lipoprotein cholesterol was determined by difference between total serum cholesterol and HDL cholesterol.
W.--J. Amer. Stat. Ass., 50, 1096 (1955)]. Taking in account the ratio between α and β lipoprotein cholesterol it was necessary to make the variances homogeneous by a transformation of the values (√x).

[2] = tested on: Icem: CER (SPF Caw) male rats fed hypercholesterolaemic diet; test: Experiment No. 1: serum lipids in rats fed hypercholesterolaemic diet; assay type: in vivo, rat; conditions: 50 mg/kg/os for 4 days, *** p < 0.01
Method: as §1, §2, §3, §4, §5
Statistical analysis in experiment No. 1 was performed by the Student's test for independent samples or by the Cochran's t test when the variances were not homogeneous at the F ratio test [Bliss C. I.--Statistics in Biology, Vol. 1, page 213--Mc Graw Hill Book Company, New York, 1967; Cochran W. G., Cox G. M.--Experimental designs--J. Wiley e Sons Inc., New York, II Ed. (1968) page 100].
The Table 1 reports the values of serum total cholesterol and total HDL cholesterol and ratio between α and β lipoprotein total cholesterol from animals fed hypercholesterolaemic diet and treated with two compounds of the invention: 3-(1-imidazolyl)-2,3-dihydro-6-chloro-4H-1-benzopyran-4-one: compound A, and 3-(1-imidazolyl)-2,3-dihydro-6-chloro-4H-1-benzopyran-4-ol (trans isomer): compound B, in comparison with the values of the same variables in controls.

[3] = tested on: collagen-induced platelet aggregation; test: in vitro collagen-induced platelet aggregation in platelet rich plasma (method of Born); assay type: cell-based; conditions: final 25 mcg/ml; induced by 2 mcg/ml collagen; Guinea pig platelet rich plasma
Method: The compounds of the invention are also endowed with blood platelet-antiaggregating activity. This activity was evaluated e.g. "in vitro" on the basis of the ability of the test compounds to inhibit the collagen-induced platelet aggregation in Guinea pig platelet rich plasma according to the method of Born "Born G.V.R.--Nature, […] (1962)].

Row | Compound | Serum HDL total cholesterol, mean ± S.E. [1] [mg/100 ml] | Serum triglycerides, mean ± S.E. [1] [mg/100 ml] | Total serum cholesterol, mean ± S.E. [1] [mg/100 ml] | α/β lipoprotein total cholesterol, mean [1] | Serum HDL total cholesterol, mean ± S.E. [2] [mg/100 ml] | Total serum cholesterol, mean ± S.E. [2] [mg/100 ml] | α/β lipoprotein cholesterol, mean ± S.E. [2] | inhibition of platelet aggregation [3]
1 | O[C@H]1c2cc(Cl)ccc2OC[C@@H]1n1ccnc1 (relative stereo) [Compound B, 3-(1-imidazolyl)-2,3-dihydro-6-chloro-4H-1-benzopyran-4-ol (trans isomer)] | 50.3 ± 1.7 | 90.6 ± 6.1 | 72.4 ± 2.3 | 1.432 | 47.6 ± 2.4 | 184.4 ± 19.7 | 0.3664 ± 0.055 | 
2 | O=C1c2cc(Cl)ccc2OCC1n1ccnc1 (stereo not drawn) [Compound A, 3-(1-imidazolyl)-2,3-dihydro-6-chloro-4H-1-benzopyran-4-one] | 52.3 ± 2.5 | 77.2 ± 7.0 | 73.4 ± 3.0 | 1.450 | 44.3 ± 1.3 | 133.2 ± 10.1 | 0.548 ± 0.052 | inhibit wholly
